Results published in article PMC11790914, “Chemogenomics for steroid hormone receptors (NR3)” (Communications Chemistry, 2025).
“And” between values parts separate entries of the source, which are not always exact repeats. Identical values can stand only once.

Experiments:
[1] = biological target: T1, AURKA (Homo sapiens, UniProt O14965); assay: Liability panel screening by DSF: AURKA; type: binding; details: DSF, 20 µM, n=2; read-out: Mean ΔTM AURKA
T1 construct: made in house
T1 sequence (O14965 1-403): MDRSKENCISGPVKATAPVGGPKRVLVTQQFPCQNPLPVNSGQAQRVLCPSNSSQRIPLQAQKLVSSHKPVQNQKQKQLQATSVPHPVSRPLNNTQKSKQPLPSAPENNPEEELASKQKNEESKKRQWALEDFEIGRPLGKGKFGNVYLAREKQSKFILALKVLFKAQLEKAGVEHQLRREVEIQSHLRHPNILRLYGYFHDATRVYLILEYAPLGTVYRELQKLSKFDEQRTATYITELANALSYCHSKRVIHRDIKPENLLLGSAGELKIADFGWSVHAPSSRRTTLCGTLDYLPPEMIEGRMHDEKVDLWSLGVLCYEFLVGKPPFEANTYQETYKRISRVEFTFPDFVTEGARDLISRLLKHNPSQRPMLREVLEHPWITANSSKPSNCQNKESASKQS
Procedure: (§1) Reference ligands are listed in the methods section.
(§2) In-house produced recombinantly expressed proteins[62] of the liability panel targets were diluted in a buffer containing 10 mM HEPES (pH 7.5) and 500 mM NaCl to a concentration of 2 µM. SYPRO Orange (Invitrogen, Carlsbad, California, USA; #S6650) as a fluorescence probe was added at a 1:1000 dilution to the proteins. […] Temperature-dependent unfolding profiles were measured on a QuantStudio™ 5 real-time PCR machine (Thermo Fisher Scientific, Waltham, Massachusetts, USA; #A28140). […] The temperature was increased 3 °C per minute to a maximum temperature of 85 °C. Experiments were run as technical duplicates. […] Data were analyzed with the internal Thermal Shift Software (version 1.4, Thermo Fisher Scientific) using the Boltzmann equitation to determine the inflection point of the transition curve. Differences in melting temperature are given as ∆Tm in K. […]
(§3) scanning fluorimetry (DSF).
(§4) a concentration of 20 µM.

[2] = biological target: T2, MAPK1 (Homo sapiens, UniProt P28482); assay: Liability panel screening by DSF: MAPK1; type: binding; details: DSF, 20 µM, n=2; read-out: Mean ΔTM MAPK1
T2 construct: made in house
T2 sequence (P28482 whole entry, species assumed): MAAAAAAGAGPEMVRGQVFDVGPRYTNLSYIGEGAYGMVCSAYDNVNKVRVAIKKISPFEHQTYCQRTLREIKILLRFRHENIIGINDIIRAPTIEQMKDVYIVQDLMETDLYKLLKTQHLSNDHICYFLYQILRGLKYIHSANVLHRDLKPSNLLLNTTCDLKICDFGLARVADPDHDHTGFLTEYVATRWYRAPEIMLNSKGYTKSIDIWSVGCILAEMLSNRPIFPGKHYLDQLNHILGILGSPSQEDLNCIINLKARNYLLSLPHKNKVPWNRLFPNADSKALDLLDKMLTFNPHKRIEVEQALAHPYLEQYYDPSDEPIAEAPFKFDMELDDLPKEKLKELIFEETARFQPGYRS
Procedure: as §1, §2, §3, §4

[3] = biological target: T3, TRIM24 (Homo sapiens, UniProt O15164); assay: Liability panel screening by DSF: TRIM24; type: binding; details: DSF, 20 µM, n=2; read-out: Mean ΔTM TRIM24
T3 construct: This panel comprised ten highly ligandable kinases and bromodomains; made in house
T3 sequence (O15164 899-1004 limits assumed): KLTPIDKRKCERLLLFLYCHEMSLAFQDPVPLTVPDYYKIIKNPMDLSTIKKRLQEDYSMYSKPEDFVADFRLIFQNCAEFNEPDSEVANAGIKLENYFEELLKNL
Procedure: as §1, §2, §3, §4

[4] = biological target: T4, CDK2 (Homo sapiens, UniProt P24941); assay: Liability panel screening by DSF: CDK2; type: binding; details: DSF, 20 µM, n=2; read-out: Mean ΔTM CDK2
T4 construct: made in house
Procedure: as §1, §2, §3, §4

[5] = biological target: T5, BRPF1 (Homo sapiens, UniProt P55201); assay: Liability panel screening by DSF: BRPF1; type: binding; details: DSF, 20 µM, n=2; read-out: Mean ΔTM BRPF1
T5 construct: This panel comprised ten highly ligandable kinases and bromodomains; made in house
T5 sequence (P55201 628-732 limits assumed): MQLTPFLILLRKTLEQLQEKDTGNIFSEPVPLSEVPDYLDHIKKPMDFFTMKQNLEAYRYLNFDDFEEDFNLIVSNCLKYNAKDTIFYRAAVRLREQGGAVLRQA
Procedure: as §1, §2, §3, §4

[6] = test system: HEK293T cells; assay: Cytotoxicity: apoptosis induction (caspase-3/7 DEVD fluorogenic DNA dye); details: 1 µM; HEK293T, 24 h; apoptotic cell count normalized to 0.1% DMSO; single replicates
Procedure: (§5) Cells were incubated with the test compounds at the indicated concentrations solubilized with 0.1% DMSO for 24 h. Growth-rate was determined based on the change in confluence over 24 h normalized to the change in confluence of cells treated with the 0.1% DMSO control (n = 10). Metabolic activity was determined with a water-soluble tetrazolium-8 (WST-8) assay (n = 8) after 24 h treatment. Apoptotic cells were detected with a fluorogenic DNA dye coupled to the caspase-3/7 recognition sequence (DEVD) after 24 h treatment and the apoptotic cell count was normalized to 0.1% DMSO treated cells (n = 6).
(§6) HEK293T cells (German Collection of Microorganisms and Cell Culture GmbH, DSMZ; #ACC305) were cultured in DMEM high glucose, supplemented with 10% fetal calf serum (FCS), sodium pyruvate (1 mM), penicillin (100 µ/mL) and streptomycin (100 µg/mL) at 37 °C and 5% (v/v) CO2, and seeded in pre-coated (10 µg/mL collagen G solution (Merck KgaA; #L7213) for 30 min at 37 °C) 96-well plates (2 × 10^5 cells per well). After 24 h, the cells were treated with the respective NR3 CG compound candidate at the recommended concentration, bexarotene (100 µM) or doxorubicin (30 µM) as positive controls in DMEM high glucose supplemented with 0.1% FCS, penicillin (100 µ/mL), streptomycin (100 µg/mL) and 0.1% DMSO, or 0.1% DMSO alone as an untreated control. Each sample was prepared in at least four biologically independent replicates. […] Thereafter, the medium was aspirated and the cells were incubated for 3 h with 90 µL DMEM high glucose supplemented with 0.2% FCS, penicillin (100 µ/mL) and streptomycin (100 µg/mL) and additionally containing 10 µL Cell Counting Kit 8 solution (CCK-8; MedChemExpress, Monmouth Junction, New York, USA; #HY-K0301), and absorbance was measured at 1 h, 2 h and 3 h of incubation at 450 nm on a Tecan Spark Cyto to assess metabolic activity of the cells. Before drug administration, after the first medium exchange, 24 h after drug administration, and after fluorescence imaging cell confluence was assessed using the Tecan Spark Cyto, to account for changes in cell confluence due to drug administration and cell handling. Compound effects on cell confluence, apoptosis, metabolic activity and necrosis were normalized to the vehicle control of each biological replicate individually.

[7] = biological target: T6, CSNK1D (Homo sapiens, UniProt P48730); assay: Liability panel screening by DSF: CSNK1D; type: binding; details: DSF, 20 µM, n=2; read-out: Mean ΔTM CSNK1D
T6 construct: made in house
T6 sequence (P48730 whole entry, species assumed): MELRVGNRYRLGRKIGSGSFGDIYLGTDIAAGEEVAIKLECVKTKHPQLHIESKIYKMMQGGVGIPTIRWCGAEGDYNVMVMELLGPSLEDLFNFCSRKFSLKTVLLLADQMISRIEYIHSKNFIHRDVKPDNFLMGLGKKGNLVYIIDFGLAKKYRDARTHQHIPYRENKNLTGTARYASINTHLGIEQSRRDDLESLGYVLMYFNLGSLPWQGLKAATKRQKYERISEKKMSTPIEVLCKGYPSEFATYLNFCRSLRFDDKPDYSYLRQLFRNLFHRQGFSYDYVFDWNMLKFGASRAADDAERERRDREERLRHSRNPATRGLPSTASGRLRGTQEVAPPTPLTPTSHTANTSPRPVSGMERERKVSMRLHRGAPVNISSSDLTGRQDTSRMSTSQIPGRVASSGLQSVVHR
Procedure: as §1, §2, §3, §4

[8] = test system: HEK293T cells; assay: Cytotoxicity: growth-rate (change in confluence over 24 h); details: 1 µM, normalized to 0.1% DMSO control, single replicates (n=1...)
Procedure: as §5, §6

[9] = biological target: T7, ABL1 (Homo sapiens, UniProt P00519); assay: Liability panel screening by DSF: ABL1; type: binding; details: DSF, 20 µM, n=2; read-out: Mean ΔTM ABL1
T7 construct: made in house
T7 sequence (P00519 whole entry, species assumed): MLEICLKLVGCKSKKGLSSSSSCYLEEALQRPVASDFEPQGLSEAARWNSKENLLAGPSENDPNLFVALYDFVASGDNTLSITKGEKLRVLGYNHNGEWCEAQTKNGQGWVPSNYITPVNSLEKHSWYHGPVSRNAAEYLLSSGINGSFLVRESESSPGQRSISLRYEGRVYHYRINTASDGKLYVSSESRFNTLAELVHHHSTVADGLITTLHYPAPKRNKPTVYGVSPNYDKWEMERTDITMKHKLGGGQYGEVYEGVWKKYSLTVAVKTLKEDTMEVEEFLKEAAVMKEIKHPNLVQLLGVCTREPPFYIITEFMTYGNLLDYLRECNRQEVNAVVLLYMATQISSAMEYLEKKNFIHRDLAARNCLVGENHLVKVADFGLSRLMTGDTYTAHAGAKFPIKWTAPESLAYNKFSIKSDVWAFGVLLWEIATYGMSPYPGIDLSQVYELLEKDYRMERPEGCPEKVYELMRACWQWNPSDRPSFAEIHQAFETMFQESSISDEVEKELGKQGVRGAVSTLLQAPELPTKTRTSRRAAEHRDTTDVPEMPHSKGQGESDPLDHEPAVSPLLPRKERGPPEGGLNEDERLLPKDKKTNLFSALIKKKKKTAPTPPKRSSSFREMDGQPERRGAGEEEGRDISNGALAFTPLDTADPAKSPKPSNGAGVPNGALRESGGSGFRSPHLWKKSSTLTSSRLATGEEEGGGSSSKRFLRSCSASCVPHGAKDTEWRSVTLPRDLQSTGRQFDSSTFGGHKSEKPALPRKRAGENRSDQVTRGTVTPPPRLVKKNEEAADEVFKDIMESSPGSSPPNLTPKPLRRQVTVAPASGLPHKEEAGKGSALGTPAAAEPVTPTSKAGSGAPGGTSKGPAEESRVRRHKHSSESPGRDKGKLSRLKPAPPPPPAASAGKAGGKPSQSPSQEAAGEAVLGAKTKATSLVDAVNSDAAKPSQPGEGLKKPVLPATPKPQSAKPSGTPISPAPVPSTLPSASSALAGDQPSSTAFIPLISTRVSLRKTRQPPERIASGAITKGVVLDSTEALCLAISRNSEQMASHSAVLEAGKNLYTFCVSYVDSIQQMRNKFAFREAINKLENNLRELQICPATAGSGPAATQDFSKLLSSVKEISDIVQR
Procedure: as §1, §2, §3, §4

[10] = test system: NF-κB activity in HEK293 NF-κB reporter cells; assay: NF-kB activity assay (GFP reporter, ionomycin/PMA); type: cell-based; details: n=3
Procedure, shortened: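 HEK293 NF-κB GFP reporter cells given compound in 0.1% DMSO for 4 h, then stimulated with ionomycin 100 ng/mL plus PMA 10 ng/mL. Imaged every 90 min over 24 h; GFP-positive cell count normalized to confluence, three independent biological replicates.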

[11] = biological target: T8, BRD4 (Homo sapiens, UniProt O60885); assay: Liability panel screening by DSF: BRD4; type: binding; details: DSF, 20 µM, n=2; read-out: Mean ΔTM BRD4
T8 construct: This panel comprised ten highly ligandable kinases and bromodomains; made in house
Procedure: as §1, §2, §3, §4

[12] = test system: ATF6 activity in Hela ATF6 reporter cells; assay: Endoplasmic reticulum stress assay (ATF6 Renilla luciferase reporter, tunicamycin); type: cell-based; details: for activity at 1 µM: Homo sapiens, HeLa, single replicates n=1 to n=5, read-out: ER stress [rel. ATF6 activity]
Procedure, shortened: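 HeLa ATF6 Renilla reporter cells were pretreated 4 h with compounds in 0.1% DMSO, then stimulated with tunicamycin (100 ng/mL) for 18 h. Renilla luminescence (DualGlo) was normalized to 0.1% DMSO control; five independent experiments.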

[13] = biological target: T9, FGFR3 (Homo sapiens, UniProt P22607); assay: Liability panel screening by DSF: FGFR3; type: binding; details: DSF, 20 µM, n=2; read-out: Mean ΔTM FGFR3
T9 construct: made in house
T9 sequence (P22607 23-806, species assumed): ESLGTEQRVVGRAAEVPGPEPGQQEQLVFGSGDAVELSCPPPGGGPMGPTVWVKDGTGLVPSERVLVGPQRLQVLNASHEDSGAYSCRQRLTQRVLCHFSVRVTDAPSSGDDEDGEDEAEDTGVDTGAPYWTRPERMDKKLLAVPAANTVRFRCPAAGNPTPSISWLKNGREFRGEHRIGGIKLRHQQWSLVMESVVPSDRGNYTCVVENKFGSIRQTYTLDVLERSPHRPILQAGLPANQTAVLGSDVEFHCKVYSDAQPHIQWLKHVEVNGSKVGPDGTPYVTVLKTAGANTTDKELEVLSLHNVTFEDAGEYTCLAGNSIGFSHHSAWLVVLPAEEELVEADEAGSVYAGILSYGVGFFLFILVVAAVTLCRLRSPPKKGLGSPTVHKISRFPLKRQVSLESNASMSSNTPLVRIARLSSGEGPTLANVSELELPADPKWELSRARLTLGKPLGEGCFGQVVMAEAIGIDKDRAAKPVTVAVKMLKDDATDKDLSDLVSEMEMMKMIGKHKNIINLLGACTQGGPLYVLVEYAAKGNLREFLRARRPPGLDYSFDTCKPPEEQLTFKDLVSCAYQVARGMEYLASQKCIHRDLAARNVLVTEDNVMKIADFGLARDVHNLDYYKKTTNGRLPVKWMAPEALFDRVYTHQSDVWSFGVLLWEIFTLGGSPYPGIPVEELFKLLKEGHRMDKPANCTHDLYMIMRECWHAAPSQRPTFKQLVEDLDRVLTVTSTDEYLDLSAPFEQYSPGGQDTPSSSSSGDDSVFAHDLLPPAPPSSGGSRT
Procedure: as §1, §2, §3, §4

[14] = biological target: T10, GSK3B (Homo sapiens, UniProt P49841); assay: Liability panel screening by DSF: GSK3B; type: binding; details: DSF, 20 µM, n=2; read-out: Mean ΔTM GSK3B
T10 construct: made in house
T10 sequence (P49841 whole entry, species assumed): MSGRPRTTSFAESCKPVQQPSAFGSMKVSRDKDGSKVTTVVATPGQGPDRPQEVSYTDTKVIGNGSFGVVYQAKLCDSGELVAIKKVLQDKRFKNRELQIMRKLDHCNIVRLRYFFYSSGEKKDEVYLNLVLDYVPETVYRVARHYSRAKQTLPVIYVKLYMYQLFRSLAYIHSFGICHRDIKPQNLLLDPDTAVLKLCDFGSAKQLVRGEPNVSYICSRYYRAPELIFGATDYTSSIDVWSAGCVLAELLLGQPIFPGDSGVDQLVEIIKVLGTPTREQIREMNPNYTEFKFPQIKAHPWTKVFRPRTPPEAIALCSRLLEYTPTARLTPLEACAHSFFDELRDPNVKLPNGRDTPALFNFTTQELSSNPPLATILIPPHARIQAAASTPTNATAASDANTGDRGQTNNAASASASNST

[15] = test system: HEK293T cells; assay: Cytotoxicity: necrosis induction (red fluorescent dye for permeable plasma membranes); type: cell-based; details: 1 µM, 24 h, necrotic cell count normalized to 0.1% DMSO, single replicates;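 note: compounds applied in DMEM high glucose with 0.1% FCS and 0.1% DMSO, necrotic HEK293T cells counted by red staining of cells whose plasma membranes had become permeable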
[16] = test system: Gal4-VP16; type: cell-based; details: 1 µM; vs. DMSO ctrl; single replicates n=1-3
[17] = test system: HEK293T cells; assay: Cytotoxicity: metabolic activity (WST-8 / CCK-8 assay); details: 1 µM; HEK293T, 24 h; WST-8; normalized to 0.1% DMSO; single replicates

SMILES	ΔTm at 20 µM [1]	ΔTm at 20 µM [2]	ΔTm at 20 µM [3]	ΔTm at 20 µM [4]	ΔTm at 20 µM [5]	Apoptosis induction [AI] [6]	ΔTm at 20 µM [7]	Growth rate [GR] [8]	ΔTm at 20 µM [9]	Mean NFκB response ([10]; 1 µM, 1,5 h)	Mean NFκB response ([10]; 1 µM, 4,5 h)	Mean NFκB response ([10]; 1 µM, 7,5 h)	Mean NFκB response ([10]; 1 µM, 10,5 h)	Mean NFκB response ([10]; 1 µM, 13,5 h)	Mean NFκB response ([10]; 1 µM, 16,6 h)	Mean NFκB response ([10]; 1 µM, 19,5 h)	Mean NFκB response ([10]; 1 µM, 22,5 h)	Mean NFκB response ([10]; 1 µM, 3 h)	Mean NFκB response ([10]; 1 µM, 6 h)	Mean NFκB response ([10]; 1 µM, 9 h)	further results
Oc1ccc(-c2c(-c3ccccc3)nn3c(C(F)(F)F)cc(C(F)(F)F)nc23)cc1 [PHTPP]	-0.53 °C	-0.2 °C	-0.6 °C	0.46 °C	-1.38 °C	0.81 and 1.09 and 0.92 and 1.05 and 0.26 and 0.21	0.39 °C	0.97 and 0.45 and 1.07 and 1.62 and 1.13 and 0.53 and 1.06 and 0.18 and 2.38 and 3.71	2.06 °C	2680.27 GFP+-cells/confluence ∙ 1000	3558.89 GFP+-cells/confluence ∙ 1000	8794.33 GFP+-cells/confluence ∙ 1000	18394.67 GFP+-cells/confluence ∙ 1000	26267.00 GFP+-cells/confluence ∙ 1000	32070.00 GFP+-cells/confluence ∙ 1000	36033.33 GFP+-cells/confluence ∙ 1000	39210.00 GFP+-cells/confluence ∙ 1000	2926.71 GFP+-cells/confluence ∙ 1000	4822.41 GFP+-cells/confluence ∙ 1000	14065.00 GFP+-cells/confluence ∙ 1000	Mean NFκB response ([10]; 1 µM, 12 h): 22714.33 GFP+-cells/confluence ∙ 1000; Mean NFκB response ([10]; 1 µM, 15 h): 29343.33 GFP+-cells/confluence ∙ 1000; Mean NFκB response ([10]; 1 µM, 18 h): 34043.33 GFP+-cells/confluence ∙ 1000; Mean NFκB response ([10]; 1 µM, 21 h): 37940.00 GFP+-cells/confluence ∙ 1000; Mean NFκB response ([10]; 1 µM, 24 h): 40376.67 GFP+-cells/confluence ∙ 1000; ΔTm at 20 µM [11]: -1.27 °C; activity at 1 µM [12]: 100%; ΔTm at 20 µM [13]: 1.15 °C; ΔTm at 20 µM [14]: -0.0558 °C; Necrosis induction [NI] [15]: 1.05 and 0.87 and 0.89 and 1.10; VP16 control [fold reporter gene activity] [16]: 0.97 fold reporter gene activity and 1.04 fold reporter gene activity and 1.08 fold reporter gene activity; Metabolic activity [MA] [17]: 1.07 and 1.08 and 1.01 and 1.13 and 1.04 (2×) and 0.95 and 1.05
Oc1ccc(-c2nc3cc(O)cc(Br)c3o2)cc1 [WAY200070]	0.19 °C	-0.9 °C	0.24 °C	1.93 °C	2.12 °C	0.59 and 0.50 and 0.47 and 0.71 and 1.22 and 1.35	2.57 °C	0.70 and -0.18 and 0.97 and 1.02 and 1.09 and 1.00 and 1.07 and 0.46 and 0.96 and -0.95	2.05 °C	2392.96 GFP+-cells/confluence ∙ 1000	3166.63 GFP+-cells/confluence ∙ 1000	7710.70 GFP+-cells/confluence ∙ 1000	19182.75 GFP+-cells/confluence ∙ 1000	27828.42 GFP+-cells/confluence ∙ 1000	34347.41 GFP+-cells/confluence ∙ 1000	38770.94 GFP+-cells/confluence ∙ 1000	41785.25 GFP+-cells/confluence ∙ 1000	2570.72 GFP+-cells/confluence ∙ 1000	4284.26 GFP+-cells/confluence ∙ 1000	13724.58 GFP+-cells/confluence ∙ 1000	Mean NFκB response ([10]; 1 µM, 12 h): 23519.76 GFP+-cells/confluence ∙ 1000; Mean NFκB response ([10]; 1 µM, 15 h): 31227.07 GFP+-cells/confluence ∙ 1000; Mean NFκB response ([10]; 1 µM, 18 h): 36753.27 GFP+-cells/confluence ∙ 1000; Mean NFκB response ([10]; 1 µM, 21 h): 40136.06 GFP+-cells/confluence ∙ 1000; Mean NFκB response ([10]; 1 µM, 24 h): 43256.26 GFP+-cells/confluence ∙ 1000; ΔTm at 20 µM [11]: 0.55 °C; ATF6 activity (tunicamycin-induced endoplasmic reticulum stress) ([12]; Hela ATF6 reporter cells, tunicamycin 100 ng/mL, 18 h, compounds at recommended concentrations, n = 5): failed to reduce ATF6 activity; activity at 1 µM [12]: 92%; ΔTm at 20 µM [13]: 1.16 °C; ΔTm at 20 µM [14]: 3.58 °C; Necrosis induction [NI] [15]: 0.70 and 0.57 and 0.78 and 0.74; Metabolic activity [MA] [17]: 1.01 (2×) and 0.90 and 0.92 and 0.96 and 0.97 and 1.05 and 1.00
O=C(/C=C/c1ccc(O)cc1)c1ccc(O)cc1O [Isoliquiritigenin]	1.81 °C	1.33 °C	-0.0317 °C	1.64 °C	0.82 °C	0.29 and 1.26 and 0.88 and 1.02 and 0.64 and 1.54	1.31 °C	0.68 and 1.38 and 0.82 and 1.00 and 0.76 and 0.96 and 1.05 and 0.37 and 0.91 and 1.86	6.6 °C	3578.42 GFP+-cells/confluence ∙ 1000	4286.96 GFP+-cells/confluence ∙ 1000	9277.37 GFP+-cells/confluence ∙ 1000	19586.05 GFP+-cells/confluence ∙ 1000	28313.33 GFP+-cells/confluence ∙ 1000	34970.00 GFP+-cells/confluence ∙ 1000	39776.67 GFP+-cells/confluence ∙ 1000	43150.00 GFP+-cells/confluence ∙ 1000	3834.99 GFP+-cells/confluence ∙ 1000	5800.94 GFP+-cells/confluence ∙ 1000	14742.34 GFP+-cells/confluence ∙ 1000	Mean NFκB response ([10]; 1 µM, 12 h): 24113.33 GFP+-cells/confluence ∙ 1000; Mean NFκB response ([10]; 1 µM, 15 h): 32050.00 GFP+-cells/confluence ∙ 1000; Mean NFκB response ([10]; 1 µM, 18 h): 37423.33 GFP+-cells/confluence ∙ 1000; Mean NFκB response ([10]; 1 µM, 21 h): 41230.00 GFP+-cells/confluence ∙ 1000; Mean NFκB response ([10]; 1 µM, 24 h): 44476.67 GFP+-cells/confluence ∙ 1000; ΔTm at 20 µM [11]: 1.51 °C; activity at 1 µM [12]: 96%; ΔTm at 20 µM [13]: 1.26 °C; ΔTm at 20 µM [14]: 2.87 °C; Necrosis induction [NI] [15]: 0.85 and 0.80 and 0.45 and 1.05; Metabolic activity [MA] [17]: 1.06 and 1.13 and 1.02 (2×) and 1.07 and 1.01 and 1.10 and 1.11
